Reference: patent US12454529B2, “Piperazine cyclic ureas” (SIRONAX LTD., priority 2020, dated 2025)

Each molecule was assayed on HT-29 cells (assay: HT-29 cell necrosis/necroptosis inhibition (TNF-α + SMAC mimetic + zVAD-FMK; CellTiter-Glo cell viability)). Settings: Homo sapiens; HT-29 cells, TNF-α 10 ng/ml + SMAC mimetic 6 μM + zVAD-FMK 10 μM, 20 hours; geometric mean, 10 points in duplicate; read-out: EC50 (Cell activity; Necrosis/Necroptosis Inhibitory Activity, Compounds 1-142).
Assay type: cell-based
Procedure: Compounds 1-319 (denoted as Compound Nos. 1 through 319 in Table 3 and 4) of the disclosure were tested for binding and cellular RIP1 inhibitory activity following the experimental procedures described below.
• Cell line: HT-29 (ATCC® HTB-38™) • Culture medium: McCOY's 5A, Gibco, Cat No. 16600-082 • FBS, Gibco, Cat No. 10099-141C • Trypsin: Gibco, Cat No. 25200-056 • DMSO: Sigma, Cat No. 67-68-5, 1L • Assay plate: Corning #3903 • Compound dilution plate: Corning #3357 • Inducers: TNFα, GenScript, Cat No. Z01001-50, • SmacM, Cat. No., HY-15989, MedChemExpress (MCE) • Z_VAD FMK, TargetMol, T6013 • Cell Titer-Glo® Luminescent Cell Viability Assay Kit: Promega, Cat No. G7573 • EnVision: PerkinElmer, 2105-0010 Methods Cell Seeding
1. HT-29 cells were checked every day to make sure that they were healthy and growing as expected. They were subjected to sub-culturing when they were approximately 80% confluent.
2. The culture medium, McCOY's 5A medium (Gibco, Cat No. 16600-082) with 10% fetal bovine serum or FBS (Gibco, Cat No. 10099-141C), was pre-warmed in a 37° C. water bath for at least 30 min.
3. When the cells had reached a desired level of confluency of 80% in a T75 flask, the medium was aspirated, and the cells were washed with warm phosphate buffered saline or PBS two times.
4. 2-3 ml fresh warm trypsin (Gibco, Cat No. 25200-056) solution was added to the washed cells. The flask with the cells was transferred to a 37° C. incubator.
5. After 5 minutes, the side of the flask was tapped, and the flask was examined under a microscope for detachment of the cells to the flask. If necessary, the cells were kept in the incubator for an additional 5-10 minutes, with occasional tapping, until lifting was complete.
6. The trypsin reaction was neutralized by transferring 6-9 ml cell culture medium to sterile 15 ml conical tubes, and by centrifuging the cell culture at 300×g for 7 minutes to pellet the cells (supernatant decanted).
7. The cells were resuspended in fresh cell culture medium and the cell counting was performed using a hemocytometer.
8. 100 μl of the resuspended cell culture medium containing ˜5,000 cells were transferred into each well of the sterile 96-well cell culture plate (Corning 3903) and cultured overnight at 37° C. with 5% CO2.
Compound Titration and Treatment
1. All test compounds were dissolved in DMSO (Dimethyl sulfoxide) to create a 20 mM stock.
2. 3 μl of each compound 20 mM stock was mixed with 27 μl DMSO, and the compound solution was further diluted at a titration ratio of 1:3 (20 μl compound solution+40 μl DMSO) till the 10 points end.
3. All culture medium was removed from assay plates filled with HT-29 cell cultures. The cells were then washed with 1 PBS, and resuspended in fresh, FBS-free McCOY's 5A medium containing a cocktail of TNF-α (10 ng/ml), a SMAC mimetic compound (6 μM) and Z-VAD-fluoromethylketone or zVAD-FMK (10 μM) to stimulate the HT-29 cells to increase RIP1 kinase levels and necroptosis.
4. 0.5 μL of the diluted compound solution was added to the corresponding 96-well assay plates.
5. The assay plates were incubated for 20 hours at 37° C. with 5% CO2.
1. The CellTiter-Glo® Luminescent Cell Viability Assay was employed to detect the ATP levels of viable HT-29 cells.
2. The CellTiter-Glo® buffer and the lyophilized substrate were equilibrated to room temperature prior to use.
3. The CellTiter-Glo® substrate was resuspended with CellTiter-Glo® buffer, then mixed by gently vortexing to obtain a homogeneous solution.
4. 20 μl the enzyme/substrate mixture was transferred by multi-channel pipetting into 96-well assay plates.
5. The assay plates were placed on an orbital shaker and the contents were shaken for 3 minutes to induce cell lysis.
6. The assay plates were incubated at room temperature for 10 minutes to stabilize the luminescent signal.
7. The luminescence signals were read and recorded with EnVision.
8. The geometric mean EC50 values were calculated from 10 points response dose with duplicates. In

SMILES | EC50 [µM]
N#Cc1cc(F)cc([C@@H]2CC=NN2C(=O)N2CCN(c3ncc(F)c(-c4cc[nH]n4)n3)CC2)c1 [Compound 22, (S)-3-fluoro-5-(1-(4-(5-fluoro-4-(1H-pyrazol-3-yl)pyrimidin-2-yl)piperazine-1-carbonyl)-4,5-dihydro-1H-pyrazol-5-yl)benzonitrile] | 0.0001 to 0.1
O=C(N1CCN(c2ccnc(-c3ccc[nH]3)n2)CC1)N1N=CC[C@H]1c1cc(F)cc(F)c1 [Compound 5, (S)-(4-(2-(1H-pyrrol-2-yl)pyrimidin-4-yl)piperazin-1-yl)(5-(3,5-difluorophenyl)-4,5-dihydro-1H-pyrazol-1-yl)methanone] | 0.0001 to 0.1
Cn1ncnc1-c1nc(N2CCN(C(=O)N3N=CC[C@H]3c3cc(F)cc(C#N)c3)CC2)ncc1F [Compound 66, (S)-3-fluoro-5-(1-(4-(5-fluoro-4-(1-methyl-1H-1,2,4-triazol-5-yl)pyrimidin-2-yl)piperazine-1-carbonyl)-4,5-dihydro-1H-pyrazol-5-yl)benzonitrile] | 0.0001 to 0.1
Cn1ncc(Cl)c1-c1nc(N2CCN(C(=O)N3N=CC[C@H]3c3cc(F)cc(C#N)c3)CC2)ncc1F [Compound 15, (5)-3-(1-(4-(4-(4-chloro-1-methyl-1H-pyrazol-5-yl)-5-fluoropyrimidin-2-yl)piperazine-1-carbonyl)-4,5-dihydro-1H-pyrazol-5-yl)-5-fluorobenzonitrile] | 0.0001 to 0.1
Cc1nn(-c2nc(N3CCN(C(=O)N4N=CC[C@H]4c4cc(F)cc(F)c4)CC3)ncc2F)c(=O)n1C [Compound 95, (S)-2-(2-(4-(5-(3,5-difluorophenyl)-4,5-dihydro-1H-pyrazole-1-carbonyl)piperazin-1-yl)-5-fluoropyrimidin-4-yl)-4,5-dimethyl-2,4-dihydro-3H-1,2,4-triazol-3-one] | 0.0001 to 0.1
Cc1cnn(C)c1-c1nc(N2CCN(C(=O)N3N=CC[C@H]3c3cc(F)cc(F)c3)CC2)ncc1F [Compound 61, (S)-(5-(3,5-difluorophenyl)-4,5-dihydro-1H-pyrazol-1-yl)(4-(4-(1,4-dimethyl-1H-pyrazol-5-yl)-5-fluoropyrimidin-2-yl)piperazin-1-yl)methanone] | 0.0001 to 0.1
COC(=O)c1c[nH]c(-c2ccnc(N3CCN(C(=O)N4N=CC[C@H]4c4cc(F)cc(F)c4)CC3)n2)c1 [Compound 9, methyl (5)-5-(2-(4-(5-(3,5-difluorophenyl)-4,5-dihydro-1H-pyrazole-1-carbonyl)piperazin-1-yl)pyrimidin-4-yl)-1H-pyrrole-3-carboxylate] | 0.0001 to 0.1
Cc1c(-c2nc(N3CCN(C(=O)N4N=CC[C@H]4c4cc(F)cc(F)c4)CC3)ncc2F)nnn1CC(N)=O [Compound 31, (S)-2-(4-(2-(4-(5-(3,5-difluorophenyl)-4,5-dihydro-1H-pyrazole-1-carbonyl)piperazin-1-yl)-5-fluoropyrimidin-4-yl)-5-methyl-1H-1,2,3-triazol-1-yl)acetamide] | 0.0001 to 0.1
N#Cc1cc(F)cc([C@@H]2CC=NN2C(=O)N2CCN(c3ncc(F)c(-n4cc(C(N)=O)cn4)n3)CC2)c1 [Compound 107, (S)-1-(2-(4-(5-(3-cyano-5-fluorophenyl)-4,5-dihydro-1H-pyrazole-1-carbonyl)piperazin-1-yl)-5-fluoropyrimidin-4-yl)-1H-pyrazole-4-carboxamide] | 0.0001 to 0.1
NC(=O)c1cnn(-c2nc(N3CCN(C(=O)N4N=CC[C@H]4c4ccccc4)CC3)ncc2F)c1 [Compound 111, (S)-1-(5-fluoro-2-(4-(5-phenyl-4,5-dihydro-1H-pyrazole-1-carbonyl)piperazin-1-yl)pyrimidin-4-yl)-1H-pyrazole-4-carboxamide] | 0.0001 to 0.1
O=C(N1CCN(c2nccc(-c3ccc[nH]3)n2)CC1)N1N=CC[C@H]1c1cc(F)cc(F)c1 [Compound 6, (S)-(4-(4-(1H-pyrrol-2-yl)pyrimidin-2-yl)piperazin-1-yl)(5-(3,5-difluorophenyl)-4,5-dihydro-1H-pyrazol-1-yl)methanone] | 0.0001 to 0.1
N#Cc1cc(F)cc([C@@H]2CC=NN2C(=O)N2CCN(c3ncc(F)c(-c4ccc(O)nc4)n3)CC2)c1 [Compound 48, (S)-3-fluoro-5-(1-(4-(5-fluoro-4-(6-hydroxypyridin-3-yl)pyrimidin-2-yl)piperazine-1-carbonyl)-4,5-dihydro-1H-pyrazol-5-yl)benzonitrile] | 0.0001 to 0.1
O=C(N1CCN(c2nccc(C3=NCCN3)n2)CC1)N1N=CC[C@H]1c1cc(F)cc(F)c1 [Compound 3, (S)-(5-(3,5-difluorophenyl)-4,5-dihydro-1H-pyrazol-1-yl)(4-(4-(4,5-dihydro-1H-imidazol-2-yl)pyrimidin-2-yl)piperazin-1-yl)methanone] | 0.0001 to 0.1

Same assay, conditions: Homo sapiens; HT-29 cells, TNF-α 10 ng/ml + SMAC mimetic 6 μM + zVAD-FMK 10 μM, 20 hours; geometric mean, 10 points in duplicate; read-out: EC50 (Cell activity; Necrosis/Necroptosis Inhibitory Activity, Compounds 143-323)

SMILES | EC50 [µM]
Cc1cnn(C)c1-c1ncc(F)c(N2CCN(C(=O)N3N=CCC3c3cncs3)CC2)n1 (centres unmarked) [Compound 159, (4-(2-(1,4-dimethyl-1H-pyrazol-5-yl)-5-fluoropyrimidin-4-yl)piperazin-1-yl)(5-(thiazol-5-yl)-4,5-dihydro-1H-pyrazol-1-yl)methanone] | 0.0001 to 0.1
Cc1nc(C)n(-c2nc(N3CCN(C(=O)N4N=CCC4c4coc(C)n4)CC3)ncc2F)n1 (centres unmarked) [Compound 211, (4-(4-(3,5-dimethyl-1H-1,2,4-triazol-1-yl)-5-fluoropyrimidin-2-yl)piperazin-1-yl)(5-(2-methyloxazol-4-yl)-4,5-dihydro-1H-pyrazol-1-yl)methanone] | 0.0001 to 0.1
Cc1nc(C)n(-c2nc(N3CCN(C(=O)N4N=CC[C@H]4c4cc(F)cc(F)c4)CC3)c(F)cc2F)n1 [Compound 232, (S)-(5-(3,5-difluorophenyl)-4,5-dihydro-1H-pyrazol-1-yl)(4-(6-(3,5-dimethyl-1H-1,2,4-triazol-1-yl)-3,5-difluoropyridin-2-yl)piperazin-1-yl)methanone] | 0.0001 to 0.1
Cc1cnc([C@@H]2CC=NN2C(=O)N2CCN(c3ncc(F)c(-n4nc(C#N)nc4C)n3)CC2)s1 [Compound 319, (S)-1-(5-fluoro-2-(4-(5-(5-methylthiazol-2-yl)-4,5-dihydro-1H-pyrazole-1-carbonyl)piperazin-1-yl)pyrimidin-4-yl)-5-methyl-1H-1,2,4-triazole-3-carbonitrile] | 0.0001 to 0.1
O=C(N1CCN(c2ncc(F)c(-n3cnc(C(F)(F)F)n3)n2)CC1)N1N=CC[C@H]1c1ccccc1 [Compound 312, (S)-(4-(5-fluoro-4-(3-(trifluoromethyl)-1H-1,2,4-triazol-1-yl)pyrimidin-2-yl)piperazinyl)(5-phenyl-4,5-dihydro-1H-pyrazol-1-yl)methanone] | 0.0001 to 0.1
Cn1nc(C(N)=O)nc1-c1nc(N2CCN(C(=O)N3N=CCC3c3cncc(F)c3)CC2)ncc1F (centres unmarked) [Compound 226, 5-(5-fluoro-2-(4-(5-(5-fluoropyridin-3-yl)-4,5-dihydro-1H-pyrazole-1-carbonyl)piperazin-1-yl)pyrimidin-4-yl)-1-methyl-1H-1,2,4-triazole-3-carboxamide] | 0.0001 to 0.1
Cn1ncnc1-c1nc(N2CCN(C(=O)N3N=CC[C@H]3c3cc(F)cc(C#N)c3)CC2)ncc1Cl [Compound 166, (S)-3-(1-(4-(5-chloro-4-(1-methyl-1H-1,2,4-triazol-5-yl)pyrimidin-2-yl)piperazine-1-carbonyl)-4,5-dihydro-1H-pyrazol-5-yl)-5-fluorobenzonitrile] | 0.0001 to 0.1
